{"source": "patent US5656603A", "about": "(Loyola University of Chicago, priority 1995, dated 1997)", "key": {"[1]": {"test_system": "blood pressure response to Bk", "experiment": "Blood pressure response to intravenous bradykinin in the rat", "type": "in vivo", "conditions": "rats; intravenously, administered over a one hour period", "procedure": "While aminopeptidase P appears to be quantitatively less important than ACE, there is now evidence that aminopeptidase P is nevertheless a physiologically important regulator of the blood pressure response to Bk in the rat (15,41). […] Thus, aminopeptidase P appears to play a significant role in the pulmonary degradation of Bk.\nSee e.g., Table 2. […] A typical therapeutically effective dose of a compound of the present invention is from about 0.008 mg/kg to 8.0 mg/kg, when given intravenously."}, "[2]": {"target": "bestatin-sensitive/amastatin-insensitive membrane dipeptidase", "experiment": "Specificity of apstatin: bestatin-sensitive/amastatin-insensitive membrane dipeptidase", "type": "biochemical", "conditions": "bovine lung microsomes; Arg-Trp, pH 6.8, FLUO", "procedure": "(§1) Specificity of Apstatin--Apstatin was assayed for its ability to inhibit several other peptidases. […] Unless otherwise indicated, the source of each enzyme activity was a detergent extract of bovine lung prepared as described in (12-13). Activities were determined by a modification of the fluorescent assay described above (indicated by \"FLUO\") or by HPLC separation and quantitation of reaction products using the method described in (12) (method \"HPLC-1\") or the method described below (method \"HPLC-2\"). […]"}, "prolyl oligopeptidase": {"target": "prolyl oligopeptidase (Ovis aries, UniProt A0ACI6PCU6)", "sequence (A0ACI6PCU6 entry or part of it)": "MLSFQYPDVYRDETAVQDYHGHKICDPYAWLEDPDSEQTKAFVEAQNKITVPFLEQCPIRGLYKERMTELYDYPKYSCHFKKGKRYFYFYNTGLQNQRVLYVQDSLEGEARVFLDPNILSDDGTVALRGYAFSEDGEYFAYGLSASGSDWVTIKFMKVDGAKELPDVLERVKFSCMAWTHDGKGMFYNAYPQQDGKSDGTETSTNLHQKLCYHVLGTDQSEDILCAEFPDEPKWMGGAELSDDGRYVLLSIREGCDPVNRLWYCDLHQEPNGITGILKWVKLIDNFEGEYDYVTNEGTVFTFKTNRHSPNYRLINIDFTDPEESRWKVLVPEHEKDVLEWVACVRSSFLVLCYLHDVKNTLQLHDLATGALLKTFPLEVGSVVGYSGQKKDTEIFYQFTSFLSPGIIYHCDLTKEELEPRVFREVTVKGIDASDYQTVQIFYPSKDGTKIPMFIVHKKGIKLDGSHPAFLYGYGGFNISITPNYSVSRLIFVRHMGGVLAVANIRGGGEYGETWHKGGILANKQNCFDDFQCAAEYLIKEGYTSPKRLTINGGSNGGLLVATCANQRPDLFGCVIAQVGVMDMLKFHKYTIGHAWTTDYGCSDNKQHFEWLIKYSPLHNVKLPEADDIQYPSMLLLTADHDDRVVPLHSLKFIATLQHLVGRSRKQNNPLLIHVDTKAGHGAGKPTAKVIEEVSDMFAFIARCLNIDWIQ", "experiment": "Specificity of apstatin: prolyl oligopeptidase", "type": "biochemical", "conditions": "purified, lamb kidney; Bk, pH 6.8, HPLC-1", "from_the_text": "(§2) Enzymes--Membrane-bound aminopeptidase P was purified to homogeneity from bovine lung (14) and from rat lung. Partially purified membrane-bound aminopeptidase P from human lung was obtained by treatment of lung microsomes with phosphatidylinositol-specific phospholipase C (B. thuringiensis) (ICN, Costa Mesa, Calif.) followed by centrifugation as described previously (14). Membrane dipeptidase was purified from rat lung microsomes (manuscript in preparation). Recombinant E. coli aminopeptidase P (22) and purified lamb kidney prolyl oligopeptidase (23) were generally supplied by Dr. Tadashi Yoshimoto (Nagasaki University). Purified porcine kidney prolidase and purified porcine kidney aminopeptidase M was obtained from Sigma (St. Louis, Mo.).\nas §1"}, "endopeptidase 24.11": {"target": "T1, endopeptidase 24.11 (Bos taurus, UniProt E1BPL8)", "T1 construct": "Unless otherwise indicated, the source of each enzyme activity was a detergent extract of bovine lung; from tissue; host or cells: detergent extract of bovine lung", "T1 sequence (E1BPL8 1-750)": "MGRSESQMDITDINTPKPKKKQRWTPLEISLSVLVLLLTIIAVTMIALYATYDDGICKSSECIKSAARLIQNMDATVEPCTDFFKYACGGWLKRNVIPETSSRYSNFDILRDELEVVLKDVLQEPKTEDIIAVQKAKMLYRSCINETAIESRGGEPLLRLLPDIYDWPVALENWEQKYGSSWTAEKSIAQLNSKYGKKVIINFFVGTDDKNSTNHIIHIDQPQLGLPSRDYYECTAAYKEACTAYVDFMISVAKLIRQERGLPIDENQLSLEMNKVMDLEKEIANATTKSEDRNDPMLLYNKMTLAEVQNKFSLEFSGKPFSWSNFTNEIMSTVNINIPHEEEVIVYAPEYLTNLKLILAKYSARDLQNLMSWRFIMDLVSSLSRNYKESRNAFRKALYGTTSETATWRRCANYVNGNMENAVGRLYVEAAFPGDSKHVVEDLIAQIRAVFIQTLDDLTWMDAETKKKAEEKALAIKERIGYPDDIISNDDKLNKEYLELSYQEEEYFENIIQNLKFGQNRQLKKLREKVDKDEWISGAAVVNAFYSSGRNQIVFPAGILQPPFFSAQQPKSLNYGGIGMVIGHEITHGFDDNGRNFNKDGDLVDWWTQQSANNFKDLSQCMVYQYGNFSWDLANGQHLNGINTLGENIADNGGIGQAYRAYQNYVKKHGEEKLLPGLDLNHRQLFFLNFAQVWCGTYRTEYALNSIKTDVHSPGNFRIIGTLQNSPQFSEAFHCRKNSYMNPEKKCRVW", "experiment": "Specificity of apstatin: endopeptidase 24.11", "type": "biochemical", "conditions": "detergent extract of bovine lung; Suc-Ala-Ala-Phe-7-amido-4-methyl-coumarin, pH 6.8, HPLC-1", "procedure": "as §1"}, "microsomal dipeptidase": {"target": "T2, microsomal dipeptidase (Rattus norvegicus, UniProt P31430)", "T2 construct": "Membrane dipeptidase was purified from rat lung microsomes; from tissue; host or cells: rat lung microsomes", "T2 sequence (P31430 17-410)": "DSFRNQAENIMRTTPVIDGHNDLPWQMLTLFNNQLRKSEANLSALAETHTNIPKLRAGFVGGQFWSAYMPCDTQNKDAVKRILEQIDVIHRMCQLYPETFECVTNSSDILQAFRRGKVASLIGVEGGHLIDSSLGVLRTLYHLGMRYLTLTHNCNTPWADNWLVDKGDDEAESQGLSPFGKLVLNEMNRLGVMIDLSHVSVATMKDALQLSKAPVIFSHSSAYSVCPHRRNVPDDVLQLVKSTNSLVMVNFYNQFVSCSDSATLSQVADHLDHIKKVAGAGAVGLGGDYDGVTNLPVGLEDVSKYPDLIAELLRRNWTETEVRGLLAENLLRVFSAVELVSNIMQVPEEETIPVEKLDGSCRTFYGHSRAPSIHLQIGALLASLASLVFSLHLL", "experiment": "Specificity of apstatin: microsomal (membrane) dipeptidase", "type": "biochemical", "conditions": "purified, rat lung; Gly-D-Phe, pH 8.0, HPLC-1", "from_the_text": "as §2, §1"}, "[3]": {"target": "T3, aminopeptidase A (EC 3.4.11.7) (Rattus norvegicus, UniProt P50123)", "T3 construct": "aminopeptidase A (EC 3.4.11.7) (rat lung microsomes); from tissue; host or cells: rat lung microsomes", "T3 sequence (P50123 whole entry)": "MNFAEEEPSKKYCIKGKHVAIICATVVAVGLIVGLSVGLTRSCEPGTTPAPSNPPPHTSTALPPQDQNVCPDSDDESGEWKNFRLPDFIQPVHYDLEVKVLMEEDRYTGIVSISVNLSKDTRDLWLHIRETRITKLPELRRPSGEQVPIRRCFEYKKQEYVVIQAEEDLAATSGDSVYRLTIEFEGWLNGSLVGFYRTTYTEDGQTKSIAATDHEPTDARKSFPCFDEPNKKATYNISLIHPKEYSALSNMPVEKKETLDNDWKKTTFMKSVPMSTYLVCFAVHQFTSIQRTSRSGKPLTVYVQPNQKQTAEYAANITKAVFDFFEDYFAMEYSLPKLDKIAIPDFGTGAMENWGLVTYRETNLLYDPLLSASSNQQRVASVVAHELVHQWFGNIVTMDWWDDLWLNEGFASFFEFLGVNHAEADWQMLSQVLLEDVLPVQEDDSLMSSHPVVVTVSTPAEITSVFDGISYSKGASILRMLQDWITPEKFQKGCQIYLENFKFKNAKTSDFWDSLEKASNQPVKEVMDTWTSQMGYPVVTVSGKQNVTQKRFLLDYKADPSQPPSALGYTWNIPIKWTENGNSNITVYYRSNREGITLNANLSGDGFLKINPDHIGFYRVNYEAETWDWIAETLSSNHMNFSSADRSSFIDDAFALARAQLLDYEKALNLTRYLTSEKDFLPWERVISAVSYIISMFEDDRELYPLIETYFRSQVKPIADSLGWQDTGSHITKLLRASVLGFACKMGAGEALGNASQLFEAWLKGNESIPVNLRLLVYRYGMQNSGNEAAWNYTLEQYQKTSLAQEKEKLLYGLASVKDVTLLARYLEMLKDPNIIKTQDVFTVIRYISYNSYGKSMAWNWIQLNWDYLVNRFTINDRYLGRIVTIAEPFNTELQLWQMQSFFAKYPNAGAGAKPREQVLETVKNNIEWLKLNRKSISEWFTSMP", "experiment": "Specificity of apstatin: aminopeptidase A", "type": "biochemical", "conditions": "rat lung microsomes; α-Glu-β-Na, pH 6.8, HPLC-1", "procedure": "as §1"}}}
{"smiles": "C[C@H](NC(=O)[C@@H]1CCCN1C(=O)[C@@H]1CCCN1C(=O)[C@@H](O)[C@H](N)Cc1ccccc1)C(N)=O", "note": "[apstatin, N-[(2S, 3R)-3-amino-2-hydroxy-4-phenylbutanoyl]-L-prolyl-L-prolyl-Lalaninamide]", "values": [{"measurement": "dose at which Bk potentiation has been observed", "setting": "[1]", "value": "0.08 to 0.8", "unit": "mg/kg"}, {"measurement": "IC50", "setting": "[2]", "value": "> 800", "unit": "µM"}, {"measurement": "IC50", "setting": "prolyl oligopeptidase", "value": "> 800", "unit": "µM"}, {"measurement": "IC50", "setting": "endopeptidase 24.11", "value": "> 800", "unit": "µM"}, {"measurement": "IC50", "setting": "microsomal dipeptidase", "value": "> 800", "unit": "µM"}, {"measurement": "IC50", "setting": "[3]", "value": "> 800", "unit": "µM"}]}
